Assay results: ChEMBL document CHEMBL4152339, “Design and synthesis of novel 1H-tetrazol-5-amine based potent antimicrobial agents: DNA topoisomerase IV and gyrase affinity evaluation supported by molecular docking studies” (Eur J Med Chem, 2018)
≈ marks a conversion by molar mass, not a printed value.

Key:
Assay type in all cases: functional
Escherichia coli [1] = experiment: Antibacterial activity against Escherichia coli ML 8 after 18 hrs by CLSI disc diffusion method; details: ML 8, 18 h
[2] = system: Bordetella bronchiseptica; experiment: Antibacterial activity against Bordetella bronchiseptica ATCC 4617 after 18 hrs by CLSI disc diffusion method; details: ATCC 4617, 18 h
[3] = system: Staphylococcus epidermidis; experiment: Antibacterial activity against Staphylococcus epidermidis ATCC 35984 after 18 hrs by CLSI […] method; details: ATCC 35984, 18 h
Staphylococcus aureus [4] = experiment: Antibacterial activity against Staphylococcus aureus ATCC 25923 after 18 hrs by CLSI disc diffusion method; details: ATCC 25923, 18 h
Bacillus spizizenii = experiment: Antibacterial activity against Bacillus subtilis ATCC 6633 after 18 hrs by CLSI disc diffusion method; details: ATCC 6633, 18 h
Pseudomonas aeruginosa [5] = experiment: Antibacterial activity against Pseudomonas aeruginosa 6m after 18 hrs by CLSI disc diffusion method
Staphylococcus aureus [6] = experiment: Antibacterial activity against Staphylococcus aureus 498 after 18 hrs by CLSI disc diffusion method; details: Staphylococcus aureus, 498, 18 h
Micrococcus luteus [7] = experiment: Antibacterial activity against Micrococcus luteus ATCC 9341 after 18 hrs by CLSI disc diffusion method; details: ATCC 9341, 18 h
Pseudomonas aeruginosa [8] = experiment: Antibacterial activity against Pseudomonas aeruginosa 11m after 18 hrs by CLSI disc diffusion method
Staphylococcus aureus [9] = experiment: Antibacterial activity against Staphylococcus aureus 585 after 18 hrs by CLSI disc diffusion method; details: Staphylococcus aureus, 585, 18 h
[10] = system: Staphylococcus epidermidis; experiment: Antibacterial activity against Staphylococcus epidermidis ATCC 12228 after 18 hrs by CLSI disc diffusion method; details: ATCC 12228, 18 h
[11] = system: Staphylococcus epidermidis; experiment: Antibacterial activity against Staphylococcus epidermidis 471 after 18 hrs by CLSI disc diffusion method; details: Staphylococcus epidermidis, 471, 18 h
Staphylococcus aureus [12] = experiment: Antibacterial activity against Staphylococcus aureus 496 after 18 hrs by CLSI disc diffusion method; details: Staphylococcus aureus, 496, 18 h
Enterococcus hirae = experiment: Antibacterial activity against Enterococcus hirae ATCC 10541 after 18 hrs by CLSI disc diffusion method; details: ATCC 10541, 18 h
Staphylococcus aureus [13] = experiment: Antibacterial activity against Staphylococcus aureus NCTC 4163 after 18 hrs by CLSI disc diffusion method; details: NCTC 4163, 18 h
[14] = system: Staphylococcus epidermidis; experiment: Antibacterial activity against Staphylococcus epidermidis 510 after 18 hrs by CLSI disc diffusion method; details: Staphylococcus epidermidis, 510, 18 h
Pseudomonas aeruginosa [15] = experiment: Antibacterial activity against Pseudomonas aeruginosa ATCC 15442 after 18 hrs by CLSI disc diffusion method; details: ATCC 15442, 18 h
Escherichia coli [16] = experiment: Antibacterial activity against Escherichia coli ML 6 after 18 hrs by CLSI disc diffusion method; details: ML 6, 18 h
Bacillus cereus = experiment: Antibacterial activity against Bacillus cereus ATCC 11778 after 18 hrs by CLSI disc diffusion method; details: ATCC 11778, 18 h
Staphylococcus aureus [17] = experiment: Antibacterial activity against Staphylococcus aureus 495 after 18 hrs by CLSI disc diffusion method; details: Staphylococcus aureus, 495, 18 h
[18] = system: Staphylococcus epidermidis; experiment: Antibacterial activity against Staphylococcus epidermidis 431 after 18 hrs by CLSI disc diffusion method; details: Staphylococcus epidermidis, 431, 18 h
Staphylococcus aureus [19] = experiment: Antibacterial activity against Staphylococcus aureus 537 after 18 hrs by CLSI disc diffusion method; details: Staphylococcus aureus, 537, 18 h
Pseudomonas aeruginosa [20] = experiment: Antibacterial activity against Pseudomonas aeruginosa 31m after 18 hrs by CLSI disc diffusion method
Escherichia coli [21] = experiment: Antibacterial activity against Escherichia coli ML 15 after 18 hrs by CLSI disc diffusion method; details: ML 15, 18 h
Pseudomonas aeruginosa [22] = experiment: Antibacterial activity against Pseudomonas aeruginosa 12m after 18 hrs by CLSI disc diffusion method
[23] = system: Staphylococcus epidermidis; experiment: Antibacterial activity against Staphylococcus epidermidis 469 after 18 hrs by CLSI disc diffusion method; details: Staphylococcus epidermidis, 469, 18 h
Staphylococcus aureus [24] = experiment: Antibacterial activity against Staphylococcus aureus 497 after 18 hrs by CLSI disc diffusion method; details: Staphylococcus aureus, 497, 18 h
Enterococcus faecalis = experiment: Antibacterial activity against Enterococcus faecalis ATCC 29212 after 18 hrs by CLSI disc diffusion method; details: ATCC 29212, 18 h
Escherichia coli [25] = experiment: Antibacterial activity against Escherichia coli ML 12 after 18 hrs by CLSI disc diffusion method; details: ML 12, 18 h
Staphylococcus aureus [26] = experiment: Antibacterial activity against Staphylococcus aureus ATCC 6538 after 18 hrs by CLSI disc diffusion method; details: ATCC 6538, 18 h
Micrococcus luteus [27] = experiment: Antibacterial activity against Micrococcus luteus ATCC 10240 after 18 hrs by CLSI disc diffusion method; details: ATCC 10240, 18 h
[28] = system: Staphylococcus epidermidis; experiment: Antibacterial activity against Staphylococcus epidermidis 432 after 18 hrs by CLSI disc diffusion method; details: Staphylococcus epidermidis, 432, 18 h
Staphylococcus aureus [29] = experiment: Antibacterial activity against Staphylococcus aureus 586 after 18 hrs by CLSI disc diffusion method; details: Staphylococcus aureus, 586, 18 h
Pseudomonas aeruginosa [30] = experiment: Antibacterial activity against Pseudomonas aeruginosa 10m after 18 hrs by CLSI disc diffusion method
[31] = system: Staphylococcus epidermidis; experiment: Antibacterial activity against Staphylococcus epidermidis 511 after 18 hrs by CLSI disc diffusion method; details: Staphylococcus epidermidis, 511, 18 h
Escherichia coli [32] = experiment: Antibacterial activity against Escherichia coli ML 17 after 18 hrs by CLSI disc diffusion method; details: ML 17, 18 h
[33] = system: Staphylococcus epidermidis; experiment: Antibacterial activity against Staphylococcus epidermidis 423 after 18 hrs by CLSI disc diffusion method; details: Staphylococcus epidermidis, 423, 18 h
[34] = system: Staphylococcus epidermidis; experiment: Antibacterial activity against Staphylococcus epidermidis 433 after 18 hrs by CLSI disc diffusion method; details: Staphylococcus epidermidis, 433, 18 h
Pseudomonas aeruginosa [35] = experiment: Antibacterial activity against Pseudomonas aeruginosa 18m after 18 hrs by CLSI disc diffusion method
Escherichia coli [36] = experiment: Antibacterial activity against Escherichia coli ML 16 after 18 hrs by CLSI disc diffusion method; details: ML 16, 18 h
Escherichia coli [37] = experiment: Antibacterial activity against Escherichia coli ML 5 after 18 hrs by CLSI disc diffusion method; details: ML 5, 18 h
Staphylococcus aureus [38] = experiment: Antibacterial activity against Staphylococcus aureus 572 after 18 hrs by CLSI disc diffusion method; details: Staphylococcus aureus, 572, 18 h
Escherichia coli [39] = experiment: Antibacterial activity against Escherichia coli ML 9 after 18 hrs by CLSI disc diffusion method; details: ML 9, 18 h
Pseudomonas aeruginosa [40] = experiment: Antibacterial activity against Pseudomonas aeruginosa 16m after 18 hrs by CLSI disc diffusion method
Escherichia coli [41] = experiment: Antibacterial activity against Escherichia coli ATCC 10538 after 18 hrs by CLSI disc diffusion method; details: ATCC 10538, 18 h
Pseudomonas aeruginosa [42] = experiment: Antibacterial activity against Pseudomonas aeruginosa ATCC 27853 after 18 hrs by CLSI disc diffusion method; details: ATCC 27853, 18 h
Pseudomonas aeruginosa [43] = experiment: Antibacterial activity against Pseudomonas aeruginosa 7m after 18 hrs by CLSI disc diffusion method
Proteus vulgaris = experiment: Antibacterial activity against Proteus vulgaris NCTC 4635 after 18 hrs by CLSI disc diffusion method; details: NCTC 4635, 18 h

O=C(O)n1nnnc1Nn1cnnc1
MIC (Escherichia coli [1]): 326 µM (≈ 63.9 µg/mL) | MIC [2]: 652 µM (≈ 128 µg/mL) | MIC [3]: 5 µM (≈ 0.981 µg/mL) | MIC (Staphylococcus aureus [4]): 20 µM (≈ 3.92 µg/mL) | MIC (Bacillus spizizenii): 5 µM (≈ 0.981 µg/mL) | MIC (Pseudomonas aeruginosa [5]): 326 µM (≈ 63.9 µg/mL) | MIC (Staphylococcus aureus [6]): 82 µM (≈ 16.1 µg/mL) | MIC (Micrococcus luteus [7]): 20 µM (≈ 3.92 µg/mL) | MIC (Pseudomonas aeruginosa [8]): 652 µM (≈ 128 µg/mL) | MIC (Staphylococcus aureus [9]): 82 µM (≈ 16.1 µg/mL) | MIC [10]: 10 µM (≈ 1.96 µg/mL) | MIC [11]: 41 µM (≈ 8.04 µg/mL) | MIC (Staphylococcus aureus [12]): 82 µM (≈ 16.1 µg/mL) | MIC (Enterococcus hirae): 10 µM (≈ 1.96 µg/mL) | MIC (Staphylococcus aureus [13]): 20 µM (≈ 3.92 µg/mL) | MIC [14]: 20 µM (≈ 3.92 µg/mL) | MIC (Pseudomonas aeruginosa [15]): 1300 µM (≈ 256 µg/mL) | MIC (Escherichia coli [16]): 1300 µM (≈ 256 µg/mL) | MIC (Bacillus cereus): 10 µM (≈ 1.96 µg/mL) | MIC (Staphylococcus aureus [17]): 41 µM (≈ 8.04 µg/mL) | MIC [18]: 20 µM (≈ 3.92 µg/mL) | MIC (Staphylococcus aureus [19]): 82 µM (≈ 16.1 µg/mL) | MIC (Pseudomonas aeruginosa [20]): 326 µM (≈ 63.9 µg/mL) | MIC (Escherichia coli [21]): 1300 µM (≈ 256 µg/mL) | MIC (Pseudomonas aeruginosa [22]): 326 µM (≈ 63.9 µg/mL) | MIC [23]: 20 µM (≈ 3.92 µg/mL) | MIC (Staphylococcus aureus [24]): 82 µM (≈ 16.1 µg/mL) | MIC (Enterococcus faecalis): 10 µM (≈ 1.96 µg/mL) | MIC (Escherichia coli [25]): > 1300 µM | MIC (Staphylococcus aureus [26]): 20 µM (≈ 3.92 µg/mL) | MIC (Micrococcus luteus [27]): 20 µM (≈ 3.92 µg/mL) | MIC [28]: 41 µM (≈ 8.04 µg/mL) | MIC (Staphylococcus aureus [29]): 82 µM (≈ 16.1 µg/mL) | MIC (Pseudomonas aeruginosa [30]): 326 µM (≈ 63.9 µg/mL) | MIC [31]: 20 µM (≈ 3.92 µg/mL) | MIC (Escherichia coli [32]): 326 µM (≈ 63.9 µg/mL) | MIC [33]: 20 µM (≈ 3.92 µg/mL) | MIC [34]: 20 µM (≈ 3.92 µg/mL) | MIC (Pseudomonas aeruginosa [35]): 652 µM (≈ 128 µg/mL) | MIC (Escherichia coli [36]): 326 µM (≈ 63.9 µg/mL) | MIC (Escherichia coli [37]): 326 µM (≈ 63.9 µg/mL) | MIC (Staphylococcus aureus [38]): 41 µM (≈ 8.04 µg/mL) | MIC (Escherichia coli [39]): 326 µM (≈ 63.9 µg/mL) | MIC (Pseudomonas aeruginosa [40]): 326 µM (≈ 63.9 µg/mL) | MIC (Escherichia coli [41]): 20 µM (≈ 3.92 µg/mL) | MIC (Pseudomonas aeruginosa [42]): 1300 µM (≈ 256 µg/mL) | MIC (Pseudomonas aeruginosa [43]): 326 µM (≈ 63.9 µg/mL) | MIC (Proteus vulgaris): 10 µM (≈ 1.96 µg/mL)
